From patent publication US20230242551A1, “ISOTOPE-SUBSTITUTED SPIRO AROMATIC RING COMPOUND AND APPLICATION THEREOF” (ETERN BIOPHARMA (SHANGHAI) CO., LTD., priority 2020, published 2023) come the findings set out here.

Data set [1] can be described thus: Liver microsomal metabolic stability test (rat). Conditions: NADPH, 37° C. The class given is in vitro ADME. On the procedure: (§1) 1) Preparation of stock and working solutions of the compound: An appropriate amount of the compound was weighed and dissolved in DMSO to give a 10 mM stock solution, and the stock solution was further diluted with ACN to give a 100 µM working solution.
(§2) 73.21 g of dipotassium hydrogen phosphate trihydrate and 10.78 g of potassium dihydrogen phosphate were dissolved in 4000 mL of ultrapure water. The pH of the solution was adjusted to 7.40 ± 0.10 with 10% phosphoric acid or 1 M potassium hydroxide and the final concentration was 100 mM.
(§3) NADPH was weighed and dissolved in the phosphate buffer solution to obtain a 10 mM solution.
(§4) 445 µL of human/rat liver microsomal working solution (MWS) was added to the incubation sample plate, pre-incubated at 37° C. for 10 min, and then fully mixed after the addition of 5 µL of working solution of positive control or the compound to be tested.
(§5) 54 µL of the above intermediate working solution was transferred to the zero-time sample plate (T0), then added with 180 µL of ACN solution containing 200 ng/mL tolubutamide and labetalol (internal standard) to precipitate the protein, and finally added with 6 µL of NADPH working solution.
(§6) 44 µL of NADPH working solution was added to 396 µL of microsomal working solution containing positive control or the compound to be tested (remaining solution after the operation of steps (1) and (2)) and incubated at 37° C. At the time points of 5, 15, 30, 45, and 60 min, 60 uL of incubation solution was taken and added to 180 µL of ACN solution containing 200 ng/mL of tolubutamide and labetalol (internal standard) to precipitate the protein.
(§7) Centrifuged collected supernatants were analyzed with LC-MS/MS after appropriate dilution.
(§8) The peak area ratio of the analyte to the internal standard was used to calculate the relative percentage content of the compound after incubation and to perform exponential function fitting. The calculation formula was as follows: […]
(§9) wherein k was the rate constant obtained by linear regression taking the concentration logarithm as the ordinate and the incubation time as the absciss.
(§10) wherein CLint was the Intrinsic clearance.

Data set [2] in a line: Liver microsomal metabolic stability test (human). The class given is in vitro ADME. Conditions: NADPH, 37° C.; for half-life at 1 µM / microsomal CLint at 1 µM: pH 7.4; for half-life at 1 µM: read-out: Human hepatic microsomal metabolic half-life; for microsomal CLint at 1 µM: read-out: Intrinsic clearance of human hepatic microsomes in body. On the procedure:
as §1
Each positive control standard was dissolved separately with DMSO to obtain a 10 mM stock solution and further diluted with ACN to obtain a 100 µM working solution.
as §2
Human liver microsomes (20 mg/mL) were diluted with the phosphate buffer solution to obtain 0.56 mg/mL of a liver microsomal working solution.
as §3
1) Preparation of Blank: 54 µL of human liver microsomal working solution was transferred to a blank sample plate, then added with 6 µL of NADPH working solution, and finally added with 180 µL of ACN solution containing 200 ng/mL of tolbutamide and labetalol (internal standard) to precipitate the protein.
445 µL of human liver microsomal working solution (MWS) was added to the cofactor-free incubation sample plate, pre-incubated at 37° C. for 10 min, and then fully mixed after the addition of 5 µL of working solution of positive control or the compound to be tested.
50 µL of phosphate buffer solution was added to the above incubation sample plate, fully mixed and incubated at 37° C. for 60 min.
After the incubation is complete, 60 µL of incubation solution was taken into a pellet plate, and then added with 180 µL of ACN solution containing 200 ng/mL of tolbutamide and labetalol (internal standard) to precipitate the protein.
as §4, §5, §6, §7, §8, §9, §10

The mark [3] stands for this setting: human liver microsomes, 0-60 min.

As to `Nc1nccc(Sc2cnc(N3CCC4(CC3)Cc3ncccc3[C@H]4N)n3ccnc23)c1Cl` [Compound 1], the “Intrinsic clearance of rat hepatic microsomes in body” value in data set [1] was 19 µL/min/mg. For the same compound, the “Rat hepatic microsomal metabolic half-life” value in data set [1] (rat liver microsomes, 0-60 min) amounted to 1.17 h. Also, the “Intrinsic clearance of human hepatic microsomes in body” value in data set [2] is given as 26 µL/min/mg. In addition, the “Human hepatic microsomal metabolic half-life” value in data set [2] (setting [3]) came out at 0.9 h.

In the case of `[2H]C1([2H])c2ncccc2[C@@]([2H])(N)C12CCN(c1ncc(Sc3ccnc(N)c3Cl)c3nccn13)CC2` [Compound 12], in data set [2] (setting [3]), the half-life at 1 µM was 1.28 h. In addition, the microsomal CLint at 1 µM in data set [2] (human liver microsomes) is 18 µL/min/mg.

As to `[2H][C@@]1(N)c2cccnc2CC12CCN(c1ncc(Sc3ccnc(N)c3Cl)c3nccn13)CC2` [Compound 10], the half-life at 1 µM stood at 2.03 h in data set [1] (pH 7.4, rat liver microsomes, 0-60 min, read-out: Rat hepatic microsomal metabolic half-life) and 1.2 h in data set [2] (setting [3]). For the same compound, the microsomal CLint at 1 µM in data set [1] (pH 7.4, rat liver microsomes, read-out: Intrinsic clearance of rat hepatic microsomes in body) was determined as 11.4 µL/min/mg; in data set [2] (human liver microsomes) it was 19 µL/min/mg.
